Experimental data from ChEMBL document CHEMBL3991601, “The target landscape of clinical kinase drugs” (Science, 2017).
Active and inactive are the calls of the source.

Key:
[1] = target: T1, Mitogen-activated protein kinase kinase kinase 6 (Homo sapiens, UniProt O95382)
T1 sequence (O95382 whole entry): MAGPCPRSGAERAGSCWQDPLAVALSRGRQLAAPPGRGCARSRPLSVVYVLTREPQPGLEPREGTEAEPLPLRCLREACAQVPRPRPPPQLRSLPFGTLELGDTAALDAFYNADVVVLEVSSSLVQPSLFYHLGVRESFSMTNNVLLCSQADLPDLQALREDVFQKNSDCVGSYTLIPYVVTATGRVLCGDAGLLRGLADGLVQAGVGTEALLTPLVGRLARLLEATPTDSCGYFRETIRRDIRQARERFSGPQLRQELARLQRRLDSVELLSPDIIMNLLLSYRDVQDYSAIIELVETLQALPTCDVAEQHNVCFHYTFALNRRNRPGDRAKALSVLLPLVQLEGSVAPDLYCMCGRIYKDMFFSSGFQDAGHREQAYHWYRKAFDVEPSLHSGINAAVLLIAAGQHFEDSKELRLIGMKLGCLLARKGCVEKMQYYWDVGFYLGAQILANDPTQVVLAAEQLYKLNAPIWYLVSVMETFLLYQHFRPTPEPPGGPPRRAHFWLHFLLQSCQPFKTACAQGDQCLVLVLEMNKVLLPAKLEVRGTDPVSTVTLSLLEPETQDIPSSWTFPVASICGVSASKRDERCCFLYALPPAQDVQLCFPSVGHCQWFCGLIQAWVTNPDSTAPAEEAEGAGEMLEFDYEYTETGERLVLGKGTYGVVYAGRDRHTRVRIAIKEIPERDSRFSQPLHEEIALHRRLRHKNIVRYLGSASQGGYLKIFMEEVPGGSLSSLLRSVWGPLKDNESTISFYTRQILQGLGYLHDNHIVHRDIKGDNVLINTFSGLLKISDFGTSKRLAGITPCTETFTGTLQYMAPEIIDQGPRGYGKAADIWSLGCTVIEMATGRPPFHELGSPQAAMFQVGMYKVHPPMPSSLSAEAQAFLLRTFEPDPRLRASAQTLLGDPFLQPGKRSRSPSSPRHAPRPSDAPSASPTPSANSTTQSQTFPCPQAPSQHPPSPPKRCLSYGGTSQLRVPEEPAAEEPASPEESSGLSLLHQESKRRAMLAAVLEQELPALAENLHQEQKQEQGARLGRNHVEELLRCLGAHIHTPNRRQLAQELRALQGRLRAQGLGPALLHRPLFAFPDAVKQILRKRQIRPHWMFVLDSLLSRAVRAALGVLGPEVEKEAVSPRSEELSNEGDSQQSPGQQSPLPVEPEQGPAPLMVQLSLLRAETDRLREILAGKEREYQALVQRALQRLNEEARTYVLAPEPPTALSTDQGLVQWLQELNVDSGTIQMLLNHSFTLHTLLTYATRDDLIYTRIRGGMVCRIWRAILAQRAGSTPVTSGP

[2] = target: T2, Mitogen-activated protein kinase kinase kinase 3 (Homo sapiens, UniProt Q99759)
T2 sequence (Q99759 whole entry): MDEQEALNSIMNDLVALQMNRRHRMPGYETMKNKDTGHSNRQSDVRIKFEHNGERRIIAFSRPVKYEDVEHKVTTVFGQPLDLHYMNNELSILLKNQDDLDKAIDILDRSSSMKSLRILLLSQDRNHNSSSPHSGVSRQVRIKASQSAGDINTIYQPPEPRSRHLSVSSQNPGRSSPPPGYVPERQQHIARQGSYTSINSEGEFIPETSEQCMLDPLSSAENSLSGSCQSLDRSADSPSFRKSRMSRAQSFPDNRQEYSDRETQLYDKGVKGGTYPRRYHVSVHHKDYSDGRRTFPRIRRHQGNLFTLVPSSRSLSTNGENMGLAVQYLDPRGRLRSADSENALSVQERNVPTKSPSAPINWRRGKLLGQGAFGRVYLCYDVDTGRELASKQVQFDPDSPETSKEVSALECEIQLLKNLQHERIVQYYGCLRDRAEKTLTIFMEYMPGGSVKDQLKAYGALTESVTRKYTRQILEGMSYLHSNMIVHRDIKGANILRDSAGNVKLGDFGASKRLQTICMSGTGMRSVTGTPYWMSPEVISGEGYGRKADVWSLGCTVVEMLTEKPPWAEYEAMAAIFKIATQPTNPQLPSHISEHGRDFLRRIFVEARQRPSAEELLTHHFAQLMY

[3] = target: cAMP-dependent protein kinase catalytic subunit gamma (Homo sapiens, UniProt P22612)
[4] = target: T3, Signal recognition particle receptor subunit alpha (Homo sapiens, UniProt P08240)
T3 sequence (P08240 whole entry): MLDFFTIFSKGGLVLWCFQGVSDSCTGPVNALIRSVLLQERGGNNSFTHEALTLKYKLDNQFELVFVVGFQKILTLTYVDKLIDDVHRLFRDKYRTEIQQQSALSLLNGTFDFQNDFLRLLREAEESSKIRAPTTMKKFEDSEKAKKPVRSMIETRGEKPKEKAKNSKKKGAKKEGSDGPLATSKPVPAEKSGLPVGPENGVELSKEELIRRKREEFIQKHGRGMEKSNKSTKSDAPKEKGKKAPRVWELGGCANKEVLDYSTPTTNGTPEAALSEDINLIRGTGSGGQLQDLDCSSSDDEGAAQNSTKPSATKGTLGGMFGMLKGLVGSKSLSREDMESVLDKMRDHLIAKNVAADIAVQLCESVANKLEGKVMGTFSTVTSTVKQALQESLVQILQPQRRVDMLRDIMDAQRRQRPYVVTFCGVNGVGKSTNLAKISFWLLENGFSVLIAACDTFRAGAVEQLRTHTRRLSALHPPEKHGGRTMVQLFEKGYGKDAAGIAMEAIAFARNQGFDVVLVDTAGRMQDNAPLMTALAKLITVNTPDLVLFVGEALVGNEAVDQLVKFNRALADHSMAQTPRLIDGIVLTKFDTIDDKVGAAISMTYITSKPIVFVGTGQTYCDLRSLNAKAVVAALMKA

[5] = target: Phosphatidylethanolamine-binding protein 1 (Homo sapiens, UniProt P30086)
[6] = target: Serine/threonine-protein kinase 26 (Homo sapiens, UniProt Q9P289)
[7] = target: Protein kinase C theta type (Homo sapiens, UniProt Q04759)
Also: in the data inactive means no Kd found up to 30 µM.

Chain of cAMP-dependent protein kinase catalytic subunit gamma (P22612 whole entry): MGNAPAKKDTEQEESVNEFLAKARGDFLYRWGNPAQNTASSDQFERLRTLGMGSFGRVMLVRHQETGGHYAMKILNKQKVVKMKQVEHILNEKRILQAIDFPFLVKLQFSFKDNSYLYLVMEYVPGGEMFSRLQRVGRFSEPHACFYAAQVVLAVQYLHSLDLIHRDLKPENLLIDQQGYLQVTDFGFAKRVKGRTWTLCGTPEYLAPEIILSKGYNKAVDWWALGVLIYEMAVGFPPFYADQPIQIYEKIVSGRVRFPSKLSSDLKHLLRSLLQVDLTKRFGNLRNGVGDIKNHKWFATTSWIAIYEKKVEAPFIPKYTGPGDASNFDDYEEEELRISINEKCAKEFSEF
Chain of Phosphatidylethanolamine-binding protein 1 (P30086 whole entry): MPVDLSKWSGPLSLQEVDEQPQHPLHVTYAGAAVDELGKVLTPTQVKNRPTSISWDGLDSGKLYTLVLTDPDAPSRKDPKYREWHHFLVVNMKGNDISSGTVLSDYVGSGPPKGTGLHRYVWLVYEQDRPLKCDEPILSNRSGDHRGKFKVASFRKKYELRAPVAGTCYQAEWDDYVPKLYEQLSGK
Chain of Serine/threonine-protein kinase 26 (Q9P289 whole entry): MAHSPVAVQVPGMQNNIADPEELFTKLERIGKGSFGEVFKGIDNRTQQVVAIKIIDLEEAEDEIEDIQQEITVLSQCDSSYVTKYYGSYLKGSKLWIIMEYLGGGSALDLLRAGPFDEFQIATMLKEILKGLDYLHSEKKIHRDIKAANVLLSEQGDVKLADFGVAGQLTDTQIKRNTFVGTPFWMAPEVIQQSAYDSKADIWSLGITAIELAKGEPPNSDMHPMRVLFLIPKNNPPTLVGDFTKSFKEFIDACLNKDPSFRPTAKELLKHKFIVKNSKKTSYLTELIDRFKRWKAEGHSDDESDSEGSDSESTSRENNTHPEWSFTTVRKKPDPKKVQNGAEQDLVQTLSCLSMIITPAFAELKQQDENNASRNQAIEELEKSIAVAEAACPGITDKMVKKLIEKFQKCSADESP
Chain of Protein kinase C theta type (Q04759 whole entry): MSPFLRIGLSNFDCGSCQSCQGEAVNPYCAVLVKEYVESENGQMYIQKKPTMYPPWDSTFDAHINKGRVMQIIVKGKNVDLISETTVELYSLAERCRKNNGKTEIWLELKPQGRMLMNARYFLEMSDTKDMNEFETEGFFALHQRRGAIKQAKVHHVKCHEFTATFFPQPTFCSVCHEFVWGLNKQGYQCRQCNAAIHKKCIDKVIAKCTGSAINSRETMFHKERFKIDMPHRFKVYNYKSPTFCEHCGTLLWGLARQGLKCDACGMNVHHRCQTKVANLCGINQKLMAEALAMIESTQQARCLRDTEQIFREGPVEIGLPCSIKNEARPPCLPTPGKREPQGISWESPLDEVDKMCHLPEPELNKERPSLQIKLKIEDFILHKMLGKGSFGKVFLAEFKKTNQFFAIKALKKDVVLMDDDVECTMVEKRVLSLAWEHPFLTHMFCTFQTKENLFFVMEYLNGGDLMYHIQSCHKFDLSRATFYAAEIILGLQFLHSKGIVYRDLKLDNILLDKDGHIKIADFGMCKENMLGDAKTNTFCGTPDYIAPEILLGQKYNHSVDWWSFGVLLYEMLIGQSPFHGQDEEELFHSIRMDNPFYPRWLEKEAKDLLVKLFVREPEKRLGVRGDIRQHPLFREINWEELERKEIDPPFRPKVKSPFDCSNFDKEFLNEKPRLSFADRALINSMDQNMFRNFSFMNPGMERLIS

Row | Kd [1] | Kd [2] | Kd [3] | Kd [4] | Kd [5] | Kd [6] | Kd [7] | Structure (SMILES)
1 | > 30 µM (inactive) | 0.345 µM (active) | 0.003 µM (active) | > 30 µM (inactive) | > 30 µM (inactive) | > 30 µM (inactive) | > 30 µM (inactive) | O=C(Nc1c[nH]nc1-c1nc2cc(CN3CCOCC3)ccc2[nH]1)NC1CC1 [AT-9283]
2 | > 30 µM (inactive) | > 30 µM (inactive) | > 30 µM (inactive) | > 30 µM (inactive) | > 30 µM (inactive) | > 30 µM (inactive) | > 30 µM (inactive) | Cn1cnc2c(F)c(Nc3ccc(Br)cc3F)c(C(=O)NOCCO)cc21 [BINIMETINIB]
3 | > 30 µM (inactive) | > 30 µM (inactive) | > 30 µM (inactive) | > 30 µM (inactive) | > 30 µM (inactive) | > 30 µM (inactive) | > 30 µM (inactive) | CCn1c(C(=O)N(C2CC2)C2CC2)cc2c3c(ncn3C)c(Nc3cc(C)n(C)n3)nc21 [BMS-911543]
4 | > 30 µM (inactive) | > 30 µM (inactive) | > 30 µM (inactive) | > 30 µM (inactive) | > 30 µM (inactive) | > 30 µM (inactive) | > 30 µM (inactive) | Cc1cc(Nc2ncc(Cl)c(Nc3ccccc3S(=O)(=O)C(C)C)n2)c(OC(C)C)cc1C1CCNCC1 [CERITINIB]
5 | > 30 µM (inactive) | > 30 µM (inactive) | > 30 µM (inactive) | > 30 µM (inactive) | > 30 µM (inactive) | > 30 µM (inactive) | > 30 µM (inactive) | COc1c(OCCCN2CCOCC2)ccc2c1N=C(NC(=O)c1cnc(N)nc1)N1CCN=C21 [COPANLISIB]
6 | > 30 µM (inactive) | > 30 µM (inactive) | > 30 µM (inactive) | > 30 µM (inactive) | > 30 µM (inactive) | > 30 µM (inactive) | > 30 µM (inactive) | COCC(=O)NC/C=C/c1ccc2ncnc(Nc3ccc(Oc4ccc(C)nc4)c(C)c3)c2c1 [CP-724714]
7 | > 30 µM (inactive) | > 30 µM (inactive) | > 30 µM (inactive) | > 30 µM (inactive) | > 30 µM (inactive) | > 30 µM (inactive) | > 30 µM (inactive) | C#Cc1cccc(Nc2ncnc3cc(OC)c(OCCCCCCC(=O)NO)cc23)c1 [CUDC-101]
8 | > 30 µM (inactive) | > 30 µM (inactive) | > 30 µM (inactive) | > 30 µM (inactive) | > 30 µM (inactive) | > 30 µM (inactive) | > 30 µM (inactive) | Cc1cccc(-c2nn3c(c2-c2ccnc4ccc(C(N)=O)cc24)CCC3)n1 [GALUNISERTIB]
9 | > 30 µM (inactive) | > 30 µM (inactive) | > 30 µM (inactive) | > 30 µM (inactive) | > 30 µM (inactive) | > 30 µM (inactive) | > 30 µM (inactive) | CNC(=O)c1cccc2cc(Oc3ccnc4cc(OCC5(N)CC5)c(OC)cc34)ccc12 [LUCITANIB]
10 | > 30 µM (inactive) | > 30 µM (inactive) | > 30 µM (inactive) | > 30 µM (inactive) | > 30 µM (inactive) | > 30 µM (inactive) | > 30 µM (inactive) | NC1(c2ccc(-c3nc4ccn5c(=O)[nH]nc5c4cc3-c3ccccc3)cc2)CCC1 [MK-2206]
11 | > 30 µM (inactive) | > 30 µM (inactive) | > 30 µM (inactive) | > 30 µM (inactive) | > 30 µM (inactive) | > 30 µM (inactive) | > 30 µM (inactive) | CN(C[C@@H]1COCCO1)S(=O)(=O)Nc1ccc2ccc3ncc(-c4cnn(C)c4)cc3c(=O)c2c1 [MK-2461]
12 | > 30 µM (inactive) | > 30 µM (inactive) | > 30 µM (inactive) | > 30 µM (inactive) | > 30 µM (inactive) | > 30 µM (inactive) | > 30 µM (inactive) | Cn1cc(-c2cnc3ccc4ccc(CS(=O)(=O)NCc5ccccn5)cc4c(=O)c3c2)cn1 [MK-8033]
13 | > 30 µM (inactive) | > 30 µM (inactive) | > 30 µM (inactive) | > 30 µM (inactive) | > 30 µM (inactive) | > 30 µM (inactive) | > 30 µM (inactive) | FC(F)(F)c1ccc(/C=C/c2nc(COc3ccc(CCCCn4ccnn4)cc3)co2)cc1 [MUBRITINIB]
14 | > 30 µM (inactive) | > 30 µM (inactive) | > 30 µM (inactive) | > 30 µM (inactive) | > 30 µM (inactive) | > 30 µM (inactive) | > 30 µM (inactive) | COc1ncc(-c2ccc3nccc(-c4ccnnc4)c3c2)cc1NS(=O)(=O)c1ccc(F)cc1F [OMIPALISIB]

Row | Structure (SMILES) | Kd [1] | Kd [2] | Kd [3] | Kd [4] | Kd [5] | Kd [6] | Kd [7]
15 | COc1cc([C@@H]2c3cc4c(cc3[C@H](O)[C@H]3COC(=O)[C@@H]23)OCO4)cc(OC)c1OC [AXL-1717] | > 30 µM (inactive) | > 30 µM (inactive) | > 30 µM (inactive) | > 30 µM (inactive) | > 30 µM (inactive) | > 30 µM (inactive) | > 30 µM (inactive)
16 | NC(=O)Nc1cc(-c2cccc(F)c2)sc1C(=O)N[C@H]1CCCNC1 [AZD-7762] | > 30 µM (inactive) | > 30 µM (inactive) | > 30 µM (inactive) | > 30 µM (inactive) | > 30 µM (inactive) | > 30 µM (inactive) | > 30 µM (inactive)
17 | O=C(Nc1nc2cccc(-c3ccc(CN4CCS(=O)(=O)CC4)cc3)n2n1)C1CC1 [FILGOTINIB] | > 30 µM (inactive) | > 30 µM (inactive) | > 30 µM (inactive) | > 30 µM (inactive) | > 30 µM (inactive) | > 30 µM (inactive) | > 30 µM (inactive)
18 | O=C(Nc1cc(C(F)(F)F)cc(C(F)(F)F)c1)c1cc(Cl)ccc1O [IMD-0354] | > 30 µM (inactive) | > 30 µM (inactive) | > 30 µM (inactive) | > 30 µM (inactive) | > 30 µM (inactive) | > 30 µM (inactive) | > 30 µM (inactive)
19 | CCCCCCCCCCCCCCCCCCOP(=O)([O-])OC1CC[N+](C)(C)CC1 [PERIFOSINE] | > 30 µM (inactive) | > 30 µM (inactive) | > 30 µM (inactive) | > 30 µM (inactive) | > 30 µM (inactive) | > 30 µM (inactive) | > 30 µM (inactive)
